Assay results from EP4389751A1, “HETEROCYCLIC COMPOUNDS AND USES THEREOF” (Kumquat Biosciences Inc., priority 2021, dated 2024).

Molecular target: T1, KRAS protein (His-tagged GDP-loaded G12S 1-169) (Homo sapiens, UniProt P01116, G12S)
T1 construct: His-tagged GDP-loaded G12S 1-169
Assay: Covalent modification of KRAS protein, intact-protein LC-MS
Type: binding
Conditions: for K-Ras12S engagement after 24-hour treatment: compound pairs differ only at R^6 (warhead); for % G12S Modification at 24 hr.: 24hrs at room temperature, KRAS protein ~2 µM
Summary of the method: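 His-tagged GDP-loaded KRAS 1-169 (~2 µM) incubated with compound 24 h at room temperature, then quenched with formic acid. Intact-protein LC-ESI-MS on C4 column; deconvoluted peak intensities of unmodified and adducted protein give percent covalent modification.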

SMILES | K-Ras12S engagement after 24-hour treatment | % G12S Modification at 24 hr.
Nc1nc2c(-c3c(Cl)cc4c(N5CCN(C(=O)n6cncn6)CC(F)(F)C5)nc(OC[C@@]56CCCN5C[C@H](F)C6)nc4c3F)ccc(F)c2s1 [Compound A141, (4-(7-(2-amino-7-fluorobenzo[d]thiazol-4-yl)-6-chloro-8-fluoro-2-(((2R,7aS)-2-fluorotetrahydro-1H-pyrrolizin-7a(5H)-yl)methoxy)quinazolin-4-yl)-6,6-difluoro-1,4-diazepan-1-yl)(1H-1,2,4-triazol-1-yl)methanone] | +++ (+++: indicates equal to or greater than 20% labelling) | +++ (+++ indicates greater than 20% labelling)
Cc1nc(C)n(C(=O)N2CC3(COCCN(c4nc(OC[C@@]56CCCN5C[C@H](F)C6)nc5c(F)c(-c6ccc(F)c7sc(N)c(C#N)c67)c(Cl)cc45)C3)C2)n1 [Compound A185, 2-amino-4-(6-chloro-4-(2-(3,5-dimethyl-1H-1,2,4-triazole-1-carbonyl)-6-oxa-2,9-diazaspiro[3.6]decan-9-yl)-8-fluoro-2-(((2R,7aS)-2-fluorotetrahydro-1H-pyrrolizin-7a(5H)-yl)methoxy)quinazolin-7-yl)-7-fluorobenzo[b]thiophene-3-carbonitrile] | – | ++ (++ indicates between about 1%- 20% labelling)
COCCN1CCC(Oc2nc(N3CCCCC4(CN(C(=O)n5cncn5)C4)C3)c3cc(Cl)c(-c4ccc(F)c5sc(N)c(C#N)c45)c(F)c3n2)CC1 [Compound A119, 4-(4-(2-(1H-1,2,4-triazole-1-carbonyl)-2,6-diazaspiro[3.6]decan-6-yl)-6-chloro-8-fluoro-2-((1-(2-methoxyethyl)piperidin-4-yl)oxy)quinazolin-7-yl)-2-amino-7-fluorobenzo[b]thiophene-3-carbonitrile] | – | +++ (+++ indicates greater than 20% labelling)
Cc1nc(C)n(C(=O)N2CC3(C2)CN(c2nc(OC[C@@]45CCCN4C[C@H](F)C5)nc4c(F)c(-c5ccc(F)c6sc(N)c(C#N)c56)c(Cl)cc24)CCO3)n1 [Compound A283, 2-amino-4-(6-chloro-4-(2-(3,5-dimethyl-1H-1,2,4-triazole-1-carbonyl)-5-oxa-2,8-diazaspiro[3.5]nonan-8-yl)-8-fluoro-2-(((2R,7aS)-2-fluorotetrahydro-1H-pyrrolizin-7a(5H)-yl)methoxy)quinazolin-7-yl)-7-fluorobenzo[b]thiophene-3-carbonitrile] | – | +++ (+++ indicates greater than 20% labelling)
Cc1ncn(C(=O)N2CC3(CCCN(c4nc(OC[C@@]56CCCN5C[C@H](F)C6)nc5c(F)c(-c6ccc(F)c7sc(N)c(C#N)c67)c(Cl)cc45)C3)C2)n1 [Compound A102, 2-amino-4-(6-chloro-8-fluoro-2-(((2R,7aS)-2-fluorotetrahydro-1H-pyrrolizin-7 a(5H)-yl)methoxy)-4-(2-(3-methyl-1H-1,2,4-triazole-1-carbonyl)-2,6-diazaspiro[3.5]nonan-6-yl)quinazolin-7-yl)-7-fluorobenzo[b]thiophene-3-carbonitrile] | – | +++ (+++ indicates greater than 20% labelling)
N#Cc1cn(C(=O)N2C3CCC2CN(c2nc(OC[C@@]45CCCN4C[C@H](F)C5)nc4c(F)c(-c5ccc(F)c6sc(N)nc56)c(Cl)cc24)C3)cn1 [Compound A123, 1-(3-(7-(2-amino-7-fluorobenzo[d]thiazol-4-yl)-6-chloro-8-fluoro-2-(((2R,7aS)-2-fluorotetrahydro-1H-pyrrolizin-7a(5H)-yl)methoxy)quinazolin-4-yl)-3,8-diazabicyclo[3.2. 1]octane-8-carbonyl)-1H-imidazole-4-carbonitrile] | ++ (++: indicates between 1% to 20% labelling) | ++ (++ indicates between about 1%- 20% labelling)
Cc1ncn(C(=O)N2CC3(C2)CN(c2nc(OC[C@@]45CCCN4C[C@H](F)C5)nc4c(F)c(-c5ccc(F)c6sc(N)c(C#N)c56)c(Cl)cc24)CCO3)n1 [Compound A148, 2-amino-4-(6-chloro-8-fluoro-2-(((2R,7aS)-2-fluorotetrahydro-1H-pyrrolizin-7 a(5H)-yl)methoxy)-4-(2-(3-methyl-1H-1,2,4-triazole-1-carbonyl)-5-oxa-2,8-diazaspiro[3.5]nonan-8-yl)quinazolin-7-yl)-7-fluorobenzo[b]thiophene-3-carbonitrile] | – | +++ (+++ indicates greater than 20% labelling)
N#Cc1c(N)sc2c(F)ccc(-c3c(Cl)cc4c(N5CCOC6(CN(C(=O)n7ccnn7)C6)C5)nc(OC[C@@]56CCCN5C[C@H](F)C6)nc4c3F)c12 [Compound A195, 4-(4-(2-(1H-1,2,3-triazole-1-carbonyl)-5-oxa-2,8-diazaspiro[3.5]nonan-8-yl)-6-chloro-8-fluoro-2-(((2R,7aS)-2-fluorotetrahydro-1H-pyrrolizin-7a(5H)-yl)methoxy)quinazolin-7-yl)-2-amino-7-fluorobenzo[b]thiophene-3-carbonitrile] | – | +++ (+++ indicates greater than 20% labelling)
N#Cc1nccn1C(=O)N1C2CCC1CN(c1nc(OC[C@@]34CCCN3C[C@H](F)C4)nc3c(F)c(-c4ccc(F)c5sc(N)nc45)c(Cl)cc13)C2 [Compound A170, 1-(3-(7-(2-amino-7-fluorobenzo[d]thiazol-4-yl)-6-chloro-8-fluoro-2-(((2R,7aS)-2-fluorotetrahydro-1H-pyrrolizin-7a(5H)-yl)methoxy)quinazolin-4-yl)-3,8-diazabicyclo[3.2. 1]octane-8-carbonyl)-1H-imidazole-2-carbonitrile] | – | ++ (++ indicates between about 1%- 20% labelling)
N#Cc1c(N)sc2c(F)ccc(-c3c(Cl)cc4c(N5CCC6C5CN6C(=O)n5cncn5)nc(OC[C@@]56CCCN5C[C@H](F)C6)nc4c3F)c12 (stereo partly drawn) [Compound A183, 4-(4-(6-(1H-1,2,4-triazole-1-carbonyl)-2,6-diazabicyclo[3.2.0]heptan-2-yl)-6-chloro-8-fluoro-2-(((2R,7aS)-2-fluorotetrahydro-1H-pyrrolizin-7a(5H)-yl)methoxy)quinazolin-7-yl)-2-amino-7-fluorobenzo[b]thiophene-3-carbonitrile] | – | ++ (++ indicates between about 1%- 20% labelling)
Nc1nc2c(-c3c(Cl)cc4c(N5CCN(C(=O)n6cncn6)CC5)nc(OC[C@@]56CCCN5C[C@H](F)C6)nc4c3F)ccc(F)c2s1 [Compound A146, (4-(7-(2-amino-7-fluorobenzo[d]thiazol-4-yl)-6-chloro-8-fluoro-2-(((2R,7aS)-2-fluorotetrahydro-1H-pyrrolizin-7a(5H)-yl)methoxy)quinazolin-4-yl)piperazin-1-yl)(1H-1,2,4-triazol-1-yl)methanone] | – | +++ (+++ indicates greater than 20% labelling)
N#Cc1c(N)sc2c(F)ccc(-c3c(Cl)cc4c(N[C@H]5C[C@H]6CC[C@@H](C5)N6C(=O)n5cncn5)nc(OC[C@@]56CCCN5C[C@H](F)C6)nc4c3F)c12 [Compound A257, 4-(4-(((1R,3r,5S)-8-(1H-1,2,4-triazole-1-carbonyl)-8-azabicyclo[3.2.1]octan-3-yl)amino)-6-chloro-8-fluoro-2-(((2R,7aS)-2-fluorotetrahydro-1H-pyrrolizin-7 a(5H)-yl)methoxy)quinazolin-7-yl)-2-amino-7-fluorobenzo[b]thiophene-3-carbonitrile] | – | ++ (++ indicates between about 1%- 20% labelling)
N#Cc1c(N)sc2c(F)ccc(-c3c(Cl)cc4c(N5CCCC6(CN(C(=O)n7cncn7)C6)C5)nc(OC[C@@]56CCCN5C[C@H](F)C6)nc4c3F)c12 [Compound A129, 4-(4-(2-(1H-1,2,4-triazole-1-carbonyl)-2,6-diazaspiro[3.5]nonan-6-yl)-6-chloro-8-fluoro-2-(((2R,7aS)-2-fluorotetrahydro-1H-pyrrolizin-7a(5H)-yl)methoxy)quinazolin-7-yl)-2-amino-7-fluorobenzo[b]thiophene-3-carbonitrile] | – | +++ (+++ indicates greater than 20% labelling)
N#Cc1c(N)sc2c(F)ccc(-c3c(Cl)cc4c(N5CCC6(CN(C(=O)n7cncn7)C6)C5)nc(OC[C@@]56CCCN5C[C@H](F)C6)nc4c3F)c12 [Compound A277, 4-(4-(2-(1H-1,2,4-triazole-1-carbonyl)-2,6-diazaspiro[3.4]octan-6-yl)-6-chloro-8-fluoro-2-(((2R,7aS)-2-fluorotetrahydro-1H-pyrrolizin-7a(5H)-yl)methoxy)quinazolin-7-yl)-2-amino-7-fluorobenzo[b]thiophene-3-carbonitrile] | +++ (+++: indicates equal to or greater than 20% labelling) | +++ (+++ indicates greater than 20% labelling)
N#Cc1c(N)sc2c(F)ccc(-c3c(Cl)cc4c(N5CC6(CCCCN(C(=O)n7cncn7)C6)C5)nc(OC[C@@]56CCCN5C[C@H](F)C6)nc4c3F)c12 [Compound A285, 4-(4-(6-(1H-1,2,4-triazole-1-carbonyl)-2,6-diazaspiro[3.6]decan-2-yl)-6-chloro-8-fluoro-2-(((2R,7aS)-2-fluorotetrahydro-1H-pyrrolizin-7a(5H)-yl)methoxy)quinazolin-7-yl)-2-amino-7-fluorobenzo[b]thiophene-3-carbonitrile] | – | +++ (+++ indicates greater than 20% labelling)
CN1CCC[C@H]1COc1nc(N2CCOC3(CN(C(=O)n4cncn4)C3)C2)c2cc(Cl)c(-c3ccc(F)c4sc(N)c(C#N)c34)c(F)c2n1 [Compound A137, 4-(4-(2-(1H-1,2,4-triazole-1-carbonyl)-5-oxa-2,8-diazaspiro[3.5]nonan-8-yl)-6-chloro-8-fluoro-2-(((S)-1-methylpyrrolidin-2-yl)methoxy)quinazolin-7-yl)-2-amino-7-fluorobenzo[b]thiophene-3-carbonitrile] | – | +++ (+++ indicates greater than 20% labelling)
